Measurements from patent US9908897B2, “Spirocyclic derivatives” (CHRONOS THERAPEUTICS LIMITED, priority 2014, dated 2018).

Legend:
[1] = target: human ERG potassium channel (hERG) (Homo sapiens (Human), UniProt Q12809); experiment: hERG tail current recording, Rapid ICE automated patch-clamp; format: cell-based; conditions: HEK293 cells stably transfected with hERG
Method: Measure of the Effect on hERG Channel by Tail Current Recording Using In Vitro Rapid ICE™
The potency of the compounds of the invention in inhibiting human ERG potassium channel (hERG) tail current is assessed in a recombinant HEK293 cell line stably transfected with hERG cDNA using Rapid ICE™ (Rapid Ion Channel Electrophysiology) assay. Rapid ICE™ is an automated patch-clamp assay utilizing the PatchXpress 7000A system (Molecular Devices Corporation) or the QPatch HTX system (Sophion Bioscience A/S).
Briefly cells are cultivated for 24 to 72 hours before recordings in minimum essential medium supplemented with 10% FBS, 1% non-essential amino acids, 1% sodium pyruvate, 2 mM L-glutamine. The day of the experiment cells are detached with TrypLE and prepared to be loaded on the instrument. For PatchXpress cells are finally resuspended in 150 μl of Extracellular Buffer whereas for QPatch cells are resuspended in 7 ml Serum-Free Media containing 25 mM Hepes and Soybean trypsin inhibitor and immediately placed in the cell storage tank of the machine. The composition of the Extracellular Buffer is (mM): NaCl 137; KCl 4; CaCl2 1.8; MgCl2 1.0; D-glucose 10; N 2 hydroxyethylpiperazine-N′-2-ethanesulfonic acid (HEPES) 10; pH 7.4 with 1 M NaOH. The composition of the pipette solution is (mM): KCl 130; MgCl2 1.0; Ethylene glycol-bis(β-aminoethyl ether)-N,N,N′,N′-tetraacetic acid (EGTA) 5; MgATP 5; HEPES 10; pH 7.2 with 1 M KOH. The voltage protocol includes the following steps: step from −80 mV to −50 mV for 200 ms, +20 mV for 4.8 s, step to −50 mV for 5 s then step to the holding potential of −80 mV. Compounds of the invention are dissolved in DMSO and diluted in Extracellular Buffer to achieve final test concentrations (0.1, 1 and 10 μM) in 0.1% DMSO. The voltage protocol is run and recorded continuously during the experiment. The vehicle, corresponding to 0.1% DMSO in Extracellular Buffer, is then applied for 3 min followed by the test substance in triplicate. The standard combined exposure time is 5 min. The average of tail current amplitude values recorded from 4 sequential voltage pulses is used to calculate for each cell the effect of the test substance by calculating the residual current (% control) compared with vehicle pre-treatment. Data are reported as % inhibition for each concentration tested and IC50 values are estimated using DataXpress or QPatch software. At least two cells are tested, more if results diverge.

[2] = target: human norepinephrine transporter (NET) (Homo sapiens (Human), UniProt P23975); experiment: Scintillation Proximity Assay (SPA) competition binding, human NET; conditions: recombinant hNET-CHO membranes, [3H]nisoxetine
[3] = target: human serotonin transporter (SERT) (Homo sapiens (Human), UniProt P31645); experiment: Scintillation Proximity Assay (SPA) competition binding, human SERT; conditions: recombinant hSERT-CHO membranes, [3H]citalopram
[4] = target: human dopamine transporter (DAT) (Homo sapiens (Human), UniProt Q01959); experiment: Scintillation Proximity Assay (SPA) competition binding, human DAT; conditions: recombinant hDAT-CHO membranes, [3H]WIN-35,428
Method in brief: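 SPA binding on membranes from CHO cells stably expressing human DAT, with 5 nM [3H]WIN-35,428, WGA-PVT beads and 0.02% BSA in HEPES/NaCl/KCl buffer pH 7.4.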

Sequence of human serotonin transporter (SERT) (P31645 whole entry): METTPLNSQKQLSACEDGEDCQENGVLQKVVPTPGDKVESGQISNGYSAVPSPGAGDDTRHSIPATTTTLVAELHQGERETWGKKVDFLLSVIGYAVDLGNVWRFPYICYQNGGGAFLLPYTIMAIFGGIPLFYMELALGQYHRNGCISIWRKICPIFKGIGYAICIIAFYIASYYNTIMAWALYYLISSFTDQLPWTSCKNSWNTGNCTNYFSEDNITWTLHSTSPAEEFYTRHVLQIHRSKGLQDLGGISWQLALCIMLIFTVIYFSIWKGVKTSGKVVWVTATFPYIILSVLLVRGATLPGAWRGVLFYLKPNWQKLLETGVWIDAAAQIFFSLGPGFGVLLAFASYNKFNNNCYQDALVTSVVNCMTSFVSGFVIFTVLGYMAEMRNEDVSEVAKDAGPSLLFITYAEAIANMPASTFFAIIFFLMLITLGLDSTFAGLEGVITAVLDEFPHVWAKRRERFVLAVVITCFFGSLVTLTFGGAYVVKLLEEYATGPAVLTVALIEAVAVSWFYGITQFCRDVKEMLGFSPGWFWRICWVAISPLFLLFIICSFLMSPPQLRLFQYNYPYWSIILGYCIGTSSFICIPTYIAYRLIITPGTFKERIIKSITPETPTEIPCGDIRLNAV
Sequence of human dopamine transporter (DAT) (Q01959 whole entry): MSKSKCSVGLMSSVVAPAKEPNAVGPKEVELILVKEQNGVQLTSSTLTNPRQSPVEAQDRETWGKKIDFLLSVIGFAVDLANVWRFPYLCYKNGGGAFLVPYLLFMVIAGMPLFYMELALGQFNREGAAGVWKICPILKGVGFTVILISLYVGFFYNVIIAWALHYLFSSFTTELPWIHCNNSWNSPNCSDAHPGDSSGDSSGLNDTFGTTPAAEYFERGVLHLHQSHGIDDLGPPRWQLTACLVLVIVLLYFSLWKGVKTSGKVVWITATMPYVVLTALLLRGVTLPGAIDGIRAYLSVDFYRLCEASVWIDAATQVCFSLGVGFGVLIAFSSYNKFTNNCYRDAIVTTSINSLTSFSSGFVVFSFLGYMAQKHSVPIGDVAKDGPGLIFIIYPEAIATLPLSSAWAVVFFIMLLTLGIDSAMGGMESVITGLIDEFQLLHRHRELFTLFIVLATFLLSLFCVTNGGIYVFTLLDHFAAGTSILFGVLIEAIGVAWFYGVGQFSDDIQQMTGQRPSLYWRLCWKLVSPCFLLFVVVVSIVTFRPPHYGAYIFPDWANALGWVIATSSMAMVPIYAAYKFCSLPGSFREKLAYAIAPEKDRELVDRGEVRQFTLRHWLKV
Sequence of human norepinephrine transporter (NET) (P23975 whole entry): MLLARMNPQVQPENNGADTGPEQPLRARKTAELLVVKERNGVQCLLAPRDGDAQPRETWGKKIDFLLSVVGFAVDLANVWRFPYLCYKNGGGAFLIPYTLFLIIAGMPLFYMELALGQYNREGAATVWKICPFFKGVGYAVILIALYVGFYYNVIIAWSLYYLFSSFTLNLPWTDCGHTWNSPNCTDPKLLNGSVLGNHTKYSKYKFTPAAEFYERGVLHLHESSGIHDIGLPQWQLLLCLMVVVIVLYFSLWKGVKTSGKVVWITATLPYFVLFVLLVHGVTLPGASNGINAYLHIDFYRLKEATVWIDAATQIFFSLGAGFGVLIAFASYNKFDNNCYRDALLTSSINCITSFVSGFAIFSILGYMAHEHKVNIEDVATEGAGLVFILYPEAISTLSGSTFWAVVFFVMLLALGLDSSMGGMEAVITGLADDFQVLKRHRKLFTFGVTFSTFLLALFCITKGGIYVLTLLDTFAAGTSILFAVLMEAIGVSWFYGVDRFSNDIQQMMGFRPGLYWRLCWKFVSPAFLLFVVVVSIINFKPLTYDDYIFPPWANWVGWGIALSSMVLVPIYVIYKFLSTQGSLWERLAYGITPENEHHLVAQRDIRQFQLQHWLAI
Sequence of human ERG potassium channel (hERG) (Q12809 whole entry): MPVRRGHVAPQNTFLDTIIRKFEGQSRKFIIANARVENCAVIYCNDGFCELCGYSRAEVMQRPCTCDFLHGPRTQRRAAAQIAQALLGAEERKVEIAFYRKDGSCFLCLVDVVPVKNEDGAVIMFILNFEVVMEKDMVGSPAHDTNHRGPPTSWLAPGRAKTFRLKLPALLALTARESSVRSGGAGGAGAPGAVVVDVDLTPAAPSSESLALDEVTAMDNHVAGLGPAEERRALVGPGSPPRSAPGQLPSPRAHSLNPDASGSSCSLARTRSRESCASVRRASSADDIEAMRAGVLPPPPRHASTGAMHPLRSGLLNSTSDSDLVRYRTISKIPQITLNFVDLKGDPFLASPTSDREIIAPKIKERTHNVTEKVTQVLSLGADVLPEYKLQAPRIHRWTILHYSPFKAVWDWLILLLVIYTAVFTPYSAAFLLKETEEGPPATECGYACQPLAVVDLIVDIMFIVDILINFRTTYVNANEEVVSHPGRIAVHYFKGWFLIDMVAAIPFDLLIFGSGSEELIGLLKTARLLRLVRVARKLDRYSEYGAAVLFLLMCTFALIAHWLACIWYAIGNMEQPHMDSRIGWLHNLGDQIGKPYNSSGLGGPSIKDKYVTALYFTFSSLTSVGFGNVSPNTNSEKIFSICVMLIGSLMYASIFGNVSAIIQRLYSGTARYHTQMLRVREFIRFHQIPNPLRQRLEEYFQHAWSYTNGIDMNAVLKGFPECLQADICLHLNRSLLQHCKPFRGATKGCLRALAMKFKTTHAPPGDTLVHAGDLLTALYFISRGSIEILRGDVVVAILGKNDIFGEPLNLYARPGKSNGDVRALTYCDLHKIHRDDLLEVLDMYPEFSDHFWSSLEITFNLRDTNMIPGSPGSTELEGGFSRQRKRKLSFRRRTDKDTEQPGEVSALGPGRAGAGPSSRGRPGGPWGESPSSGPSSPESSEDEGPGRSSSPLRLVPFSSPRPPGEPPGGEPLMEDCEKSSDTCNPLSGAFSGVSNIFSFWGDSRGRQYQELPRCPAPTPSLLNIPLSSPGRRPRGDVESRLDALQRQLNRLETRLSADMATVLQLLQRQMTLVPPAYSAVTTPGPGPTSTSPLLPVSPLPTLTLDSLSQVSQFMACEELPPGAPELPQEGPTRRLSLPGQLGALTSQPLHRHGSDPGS

Cl.Fc1cccc(Oc2ccnc(N3CCC4(CC3)CNCCO4)n2)c1 [Example 42, 9-[4-(3-fluorophenoxy)pyrimidin-2-yl]-1-oxa-4,9-diazaspiro[5.5]undecane hydrochloride]
pIC50 hERG [1]: 6.4
pIC50 NET [2]: 5.64
pIC50 SERT [3]: 4.69
pIC50 DAT [4]: 7.33

Cc1cc(Oc2ccccc2)nc(N2CCC3(CC2)CNCCO3)n1.Cl [Example 43, 9-(4-methyl-6-phenoxypyrimidin-2-yl)-1-oxa-4,9-diazaspiro[5.5]undecane hydrochloride]
pIC50 hERG [1]: 5.7
pIC50 NET [2]: 6.11
pIC50 SERT [3]: 4.42
pIC50 DAT [4]: 8.01

Cc1cc(Oc2cccc(F)c2)nc(N2CCC3(CC2)CNCCO3)n1.Cl [Example 44, 9-[4-(3-fluorophenoxy)-6-methylpyrimidin-2-yl]-1-oxa-4,9-diazaspiro[5.5]undecane hydrochloride]
pIC50 hERG [1]: 6.0
pIC50 NET [2]: 6.65
pIC50 SERT [3]: 4.80
pIC50 DAT [4]: 8.29

Cc1cccc(Oc2cc(C)nc(N3CCC4(CC3)CNCCO4)n2)c1.Cl [Example 45, 9-[4-methyl-6-(3-methylphenoxy)pyrimidin-2-yl]-1-oxa-4,9-diazaspiro[5.5]undecane hydrochloride]
pIC50 hERG [1]: 5.7
pIC50 NET [2]: 5.54
pIC50 SERT [3]: 4.83
pIC50 DAT [4]: 7.59

Cc1cc(Oc2cccc(C#N)c2)nc(N2CCC3(CC2)CNCCO3)n1.Cl [Example 46, 3-[(6-methyl-2-{1-oxa-4,9-diazaspiro[5.5]undecan-9-yl}pyrimidin-4-yl)oxy]benzonitrile hydrochloride]
pIC50 hERG [1]: 6.6
pIC50 NET [2]: 5.85
pIC50 SERT [3]: 6.11
pIC50 DAT [4]: 8.03

Cc1cc(Oc2cccc(C(F)(F)F)c2)nc(N2CCC3(CC2)CNCCO3)n1.Cl [Example 48, 9-{4-methyl-6-[3-(trifluoromethyl)phenoxy]pyrimidin-2-yl}-1-oxa-4,9-diazaspiro[5.5]undecane hydrochloride]
pIC50 hERG [1]: 5.6
pIC50 NET [2]: 5.48
pIC50 SERT [3]: 5.58
pIC50 DAT [4]: 6.50

COc1cccc(Oc2cc(C)nc(N3CCC4(CC3)CNCCO4)n2)c1.Cl [Example 49, 9-[4-(3-methoxyphenoxy)-6-methylpyrimidin-2-yl]-1-oxa-4,9-diazaspiro[5.5]undecane hydrochloride]
pIC50 hERG [1]: 5.5
pIC50 NET [2]: 5.45
pIC50 SERT [3]: 4.67
pIC50 DAT [4]: 6.92

Cl.FC(F)(F)c1cc(Oc2ccccc2)nc(N2CCC3(CC2)CNCCO3)n1 [Example 55, 9-[4-phenoxy-6-(trifluoromethyl)pyrimidin-2-yl]-1-oxa-4,9-diazaspiro[5.5]undecane hydrochloride]
pIC50 hERG [1]: 5.7
pIC50 NET [2]: 6.12
pIC50 SERT [3]: 6.14
pIC50 DAT [4]: 8.19

Cl.Fc1ccccc1Oc1cc(C(F)(F)F)nc(N2CCC3(CC2)CNCCO3)n1 [Example 57, 9-[4-(2-fluorophenoxy)-6-(trifluoromethyl)pyrimidin-2-yl]-1-oxa-4,9-diazaspiro[5.5]undecane hydrochloride]
pIC50 hERG [1]: 5.7
pIC50 NET [2]: 5.94
pIC50 SERT [3]: 6.18
pIC50 DAT [4]: 7.89

Cl.N#Cc1cccc(Oc2cc(C(F)(F)F)nc(N3CCC4(CC3)CNCCO4)n2)c1 [Example 59, 3-[(2-{1-oxa-4,9-diazaspiro[5.5]undecan-9-yl}-6-(trifluoromethyl)pyrimidin-4-yl)oxy]benzonitrile hydrochloride]
pIC50 hERG [1]: 7.0
pIC50 NET [2]: 5.67
pIC50 SERT [3]: 5.15
pIC50 DAT [4]: 8.01

Cl.N#Cc1cc(Oc2cccc(F)c2)nc(N2CCC3(CC2)CNCCO3)n1 [Example 62, 6-(3-fluorophenoxy)-2-{1-oxa-4,9-diazaspiro[5.5]undecan-9-yl}pyrimidine-4-carbonitrile hydrochloride]
pIC50 hERG [1]: 6.5
pIC50 NET [2]: 6.36
pIC50 SERT [3]: 5.83
pIC50 DAT [4]: 8.01

Cl.Fc1cccc(Oc2cc(C3CC3)nc(N3CCC4(CC3)CNCCO4)n2)c1 [Example 65, 9-[4-cyclopropyl-6-(3-fluorophenoxy)pyrimidin-2-yl]-1-oxa-4,9-diazaspiro[5.5]undecane hydrochloride]
pIC50 hERG [1]: 5.7
pIC50 NET [2]: 7.08
pIC50 SERT [3]: 5.44
pIC50 DAT [4]: 8.79

COc1cc(Oc2cccc(F)c2)nc(N2CCC3(CC2)CNCCO3)n1.Cl [Example 66, 9-[4-(3-fluorophenoxy)-6-methoxypyrimidin-2-yl]-1-oxa-4,9 diazaspiro[5.5]undecane hydrochloride]
pIC50 hERG [1]: 5.7
pIC50 NET [2]: 6.52
pIC50 SERT [3]: 5.27
pIC50 DAT [4]: 8.29

O=C1COC2(CCN(c3nc(Oc4cccc(F)c4)cc(C(F)(F)F)n3)CC2)CN1 [Example 68, 9-[4-(3-fluorophenoxy)-6-(trifluoromethyl)pyrimidin-2-yl]-1-oxa-4,9-diazaspiro[5.5]undecan-3-one]
IC50 [1]: > 10 µM
pIC50 NET [2]: 5.39
pIC50 SERT [3]: 4.45
pIC50 DAT [4]: 7.28

Cl.Fc1cccc(Oc2cc(C(F)(F)F)nc(N3CCC4(CC3)CNCC(F)(F)O4)n2)c1 [Example 70, 2,2-difluoro-9-[4-(3-fluorophenoxy)-6-(trifluoromethyl)pyrimidin-2-yl]-1-oxa-4,9-diazaspiro[5.5]undecane hydrochloride]
pIC50 hERG [1]: 5.0
pIC50 NET [2]: 5.17
IC50 [3]: > 100 µM
pIC50 DAT [4]: 6.65

O=S1(=O)CCNCC12CCN(c1cc(F)c(F)cc1Oc1cccc(F)c1)CC2 [Example 71, 9-[4,5-difluoro-2-(3-fluorophenoxy)phenyl]-1λ^6-thia-4,9-diazaspiro[5.5]undecane-1,1-dione]
pIC50 hERG [1]: 5.1
pIC50 NET [2]: 4.82
pIC50 SERT [3]: 4.55
pIC50 DAT [4]: 6.22

O=S1(=O)CCNCC12CCN(c1nc(Oc3cccc(F)c3)cc(C(F)(F)F)n1)CC2 [Example 72, 9-[4-(3-fluorophenoxy)-6-(trifluoromethyl)pyrimidin-2-yl]-1λ^6-thia-4,9-diazaspiro[5.5]undecane-1,1-dione]
pIC50 hERG [1]: 5.5
pIC50 NET [2]: 4.92
IC50 [3]: > 100 µM
pIC50 DAT [4]: 7.08

Fc1cccc(Oc2cc(F)c(F)cc2N2CCC3(CCCNC3)CC2)c1 [Example 79, 9-[4,5-difluoro-2-(3-fluorophenoxy)phenyl]-2,9-diazaspiro[5.5]undecane]
pIC50 hERG [1]: 6.1
pIC50 NET [2]: 6.31
pIC50 SERT [3]: 6.49
pIC50 DAT [4]: 7.86

Fc1cccc(Oc2cc(F)c(F)cc2N2CCC3(CCNCC3)CC2)c1 [Example 82, 3-[4,5-difluoro-2-(3-fluorophenoxy)phenyl]-3,9-diazaspiro[5.5]undecane]
pIC50 hERG [1]: 6.0
pIC50 NET [2]: 6.10
pIC50 SERT [3]: 8.00
pIC50 DAT [4]: 8.14

Fc1cccc(Oc2cc(F)c(F)cc2N2CCC3(CNCCO3)C2)c1 (stereo not shown) [Example 83, 2-[4,5-difluoro-2-(3-fluorophenoxy)phenyl]-6-oxa-2,9-diazaspiro[4.5]decane]
pIC50 hERG [1]: 6.2
pIC50 NET [2]: 6.76
pIC50 SERT [3]: 6.40
pIC50 DAT [4]: 7.24

Fc1cccc(Oc2cc(F)c(F)cc2N2CCC3(CCCNC3)C2)c1 (stereo not shown) [Example 84, 2-[4,5-difluoro-2-(3-fluorophenoxy)phenyl]-2,7-diazaspiro[4.5]decane]
pIC50 hERG [1]: 6.6
pIC50 NET [2]: 6.76
pIC50 SERT [3]: 6.33
pIC50 DAT [4]: 7.94

Fc1cccc(Oc2cc(C(F)(F)F)nc(N3CCC4(CNCCC45OCCO5)C3)n2)c1 (stereo not shown) [Example 87, 8-[4-(3-fluorophenoxy)-6-(trifluoromethyl)pyrimidin-2-yl]-1,4-dioxa-8,12-diazadispiro[4.0.4^6.4^5]tetradecane]
pIC50 hERG [1]: 6.0
pIC50 NET [2]: 6.82
pIC50 SERT [3]: 5.43
pIC50 DAT [4]: 8.67
